Test results reported in patent US20250290117A1, “MOLECULAR PHENOTYPIC ANTIMICROBIAL SUSCEPTIBILITY TESTING” (priority 2024, published 2025).

Columns and labels:
Acinetobacter baumannii = experiment: Molecular phenotypic antimicrobial susceptibility test (extraction/DNA purification prior to PCR); assay type: cell-based
Protocol: Detection of Molecular Phenotypic Antimicrobial Susceptibility. Disclosed herein are the methods for the detection of phenotypic antimicrobial susceptibility via molecular methods. The present invention describes how a specimen 100 with a known microbial load is incubated and then exposed to a panel of antimicrobial agents to determine sensitivity (prevention of growth) or resistance (allowance of growth) to the specific antimicrobial agents tested utilizing molecular methods. Sample Collection. Specimens 100 are collected from patients using sterile collection processes that are employed in routine clinical care. Specimens are transported to the testing facility in boric acid preservative. […] The specimens 100 are put through a pathogen identification process using PCR technology (e.g., using the first sample 104). The process for pathogen isolation includes steps of harvesting the pathogen (e.g., via centrifugation), isolating pathogen DNA via a DNA isolation and/or purification kit, and performing PCR on the pathogen DNA via PCR components (e.g., primers, enzymes, buffers) as would be known to the skilled artisan. Simultaneously, an additional aliquot of the same specimen (e.g., the second sample 108) is placed with liquid culture media and incubated for 4-6 hours. This aliquot is used for antimicrobial susceptibility testing if indicated based on the pathogen detection results. […] Specimens 100 with lower pathogen loads could also be utilized in the antibiotic susceptibility phase of testing with or without a longer incubation period. […] Antimicrobial solutions are prepared at known concentrations. The specific antimicrobials and their concentrations are selected based on the pathogen of interest and the described antimicrobial resistance breakpoints for that specimen pathogen and antimicrobial combination. These antimicrobials have been selected based on those commonly utilized by healthcare providers in routine clinical care for the specific type of suspected infection. The number and types of antimicrobials utilized can be customized based on the infection source, pathogen detected, patient-specific factors such as allergies or other health conditions (e.g., chronic kidney disease or concurrent medication use), or healthcare provider preferences such as antimicrobial availability or cost. The antimicrobial solutions are prepared in liquid culture media (such as Muller Hinton Broth) to achieve the desired antimicrobial concentration and are then stored at −80° C. until use. For a given specimen, each antimicrobial is tested at a single or multiple antimicrobial concentration(s) which is its established breakpoints for sensitivity. The antimicrobial solutions are prepared and plated out for each specific pathogen. This allows ease of use on the day of testing after defrosting the plate 112. Table 1, which illustrates the results of molecular phenotypic antimicrobial susceptibility testing when more than one organism is present in the source specimen, provides an example of an antimicrobial plate 112 prepared for this purpose. Of note, control wells containing only culture media are present on all plates 112. This allows for evaluation of pathogen load when no antimicrobial is present. Specimen Exposure to Antimicrobial Agents. The 1 mL aliquot of the specimen 100 previously mixed with culture media and incubated is obtained. Using optical density measurements as a guide, the specimen 100 is diluted to 0.5 McFarland. The specimen 100 is then placed into the previously prepared antimicrobial susceptibility testing plate 112. Each plate 112 is prepared for a single specimen 100 for a specified pathogen based on its detection. For example, if the specimen 100 has more than one pathogen detected that needs different antimicrobial concentrations for exposure due to different minimum inhibitory concentration breakpoints for one or more organisms, then more than one antimicrobial exposure plate 112 may be needed. […]

S. aureus = experiment: Molecular phenotypic antimicrobial susceptibility test with direct PCR (no extraction DNA purification step); assay type: cell-based, Staphylococcus aureus; settings: for Molecular Antimicrobial Susceptibility Result: S. aureus isolate NR-46412 HIP13170, at sensitive breakpoint
Protocol: Detection of Molecular Phenotypic Antimicrobial Susceptibility. Disclosed herein are the methods for the detection of phenotypic antimicrobial susceptibility via molecular methods. The present invention describes how a specimen 100 with a known microbial load is incubated and then exposed to a panel of antimicrobial agents to determine sensitivity (prevention of growth) or resistance (allowance of growth) to the specific antimicrobial agents tested utilizing molecular methods.
Sample Collection. Specimens 100 are collected from patients using sterile collection processes that are employed in routine clinical care. Specimens are transported to the testing facility in boric acid preservative.
Preparation of the Specimens for Testing. […] The process for pathogen isolation includes steps of harvesting the pathogen (e.g., via centrifugation), isolating pathogen DNA via a DNA isolation and/or purification kit, and performing PCR on the pathogen DNA via PCR components (e.g., primers, enzymes, buffers) as would be known to the skilled artisan. […] This aliquot is used for antimicrobial susceptibility testing if indicated based on the pathogen detection results. […] Specimens 100 with lower pathogen loads could also be utilized in the antibiotic susceptibility phase of testing with or without a longer incubation period.
Preparation of Antimicrobial Susceptibility Testing Plates. Antimicrobial solutions are prepared at known concentrations. The specific antimicrobials and their concentrations are selected based on the pathogen of interest and the described antimicrobial resistance breakpoints for that specimen pathogen and antimicrobial combination. These antimicrobials have been selected based on those commonly utilized by healthcare providers in routine clinical care for the specific type of suspected infection. The number and types of antimicrobials utilized can be customized based on the infection source, pathogen detected, patient-specific factors such as allergies or other health conditions (e.g., chronic kidney disease or concurrent medication use), or healthcare provider preferences such as antimicrobial availability or cost.
The antimicrobial solutions are prepared in liquid culture media (such as Muller Hinton Broth) to achieve the desired antimicrobial concentration and are then stored at −80° C. until use. For a given specimen, each antimicrobial is tested at a single or multiple antimicrobial concentration(s) which is its established breakpoints for sensitivity. The antimicrobial solutions are prepared and plated out for each specific pathogen. […] This allows for evaluation of pathogen load when no antimicrobial is present.
Specimen Exposure to Antimicrobial Agents. The 1 mL aliquot of the specimen 100 previously mixed with culture media and incubated is obtained. Using optical density measurements as a guide, the specimen 100 is diluted to 0.5 McFarland.
Antimicrobial exposure plates are typically placed into an incubator for 12-16 hours.
Nucleic Acid Amplification of Antimicrobial Agent Exposed Pathogens. The antimicrobial exposure plate is removed after the period of incubation. The specimen then undergoes a purification or lysis step. For example, the specimen may undergo a purification step (e.g., magnetic bead-based or other separation protocol to isolate genetic material). In another example, the specimen may undergo a cell lysis step. For example, buffer (e.g., lysis buffer) may be added and incubated in the thermal cycler for preparation for direct PCR. Next, the specimen may undergo a polymerase chain reaction (PCR) testing protocol, whereby a semi-quantitative PCR method is utilized. This may be completed either with or without a specific extraction protocol step. The pathogens can be individually targeted and detected, or a universal genetic sequence can be utilized to detect the antimicrobial susceptibility of the specimen as a whole.

[1] = A. baumannii isolate 4, Ct at control (average) 18.061
[2] = A. baumannii isolate 4, at sensitive breakpoint
[3] = A. baumannii isolate 5, Ct at control (average) 18.191
[4] = A. baumannii isolate 5, at sensitive breakpoint

With Gentamicin the “Ct at Sensitive Breakpoint” value (Acinetobacter baumannii; [1]) was 19.380, the “Molecular Antimicrobial Susceptibility Result” value (Acinetobacter baumannii; [2]) was “Sensitive (Antimicrobial wells with pathogen load detected below the control wells (typically >2 cycle thresholds later) may be reported as Sensitive)” and the “Ct at Sensitive Breakpoint” value (Acinetobacter baumannii; [3]) was 19.399. The “Molecular Antimicrobial Susceptibility Result” value (Acinetobacter baumannii; [4]) was “Sensitive (Antimicrobial wells with pathogen load detected below the control wells (typically >2 cycle thresholds later) may be reported as Sensitive)” and the “Molecular Antimicrobial Susceptibility Result” value (S. aureus) was “Resistant”.

In the case of Trimethoprim/Sulfamethoxazole [TMP/SMX], the “Ct at Sensitive Breakpoint” value (Acinetobacter baumannii; A. baumannii isolate 1, Ct at control (average) 18.811) is reported as 22.888, the “Molecular Antimicrobial Susceptibility Result” value (Acinetobacter baumannii; A. baumannii isolate 1, at sensitive breakpoint) is reported as “Sensitive (Antimicrobial wells with pathogen load detected below the control wells (typically >2 cycle thresholds later) may be reported as Sensitive)” and the “Ct at Sensitive Breakpoint” value (Acinetobacter baumannii; A. baumannii isolate 2, Ct at control (average) 18.763) is reported as 22.916. For the same substance, the “Molecular Antimicrobial Susceptibility Result” value (Acinetobacter baumannii; A. baumannii isolate 2, at sensitive breakpoint) was “Sensitive (Antimicrobial wells with pathogen load detected below the control wells (typically >2 cycle thresholds later) may be reported as Sensitive)”, the “Ct at Sensitive Breakpoint” value (Acinetobacter baumannii; A. baumannii isolate 3, Ct at control (average) 18.799) was 22.407 and the “Molecular Antimicrobial Susceptibility Result” value (Acinetobacter baumannii; A. baumannii isolate 3, at sensitive breakpoint) was “Sensitive (Antimicrobial wells with pathogen load detected below the control wells (typically >2 cycle thresholds later) may be reported as Sensitive)”. For the same substance, the “Ct at Sensitive Breakpoint” value (Acinetobacter baumannii; [1]) was 23.297, the “Molecular Antimicrobial Susceptibility Result” value (Acinetobacter baumannii; [2]) was “Sensitive (Antimicrobial wells with pathogen load detected below the control wells (typically >2 cycle thresholds later) may be reported as Sensitive)” and the “Ct at Sensitive Breakpoint” value (Acinetobacter baumannii; [3]) was 22.742. For the same substance, the “Molecular Antimicrobial Susceptibility Result” value (Acinetobacter baumannii; [4]) was “Sensitive (Antimicrobial wells with pathogen load detected below the control wells (typically >2 cycle thresholds later) may be reported as Sensitive)”, the “Ct at Sensitive Breakpoint” value (S. aureus; S. aureus isolate NR-46412 HIP13170, Ct at control (average) 18.824) was 28.63 and the “Molecular Antimicrobial Susceptibility Result” value (S. aureus) was “Sensitive (Antimicrobial wells with pathogen load detected below the control wells (typically >2 cycle thresholds later) may be reported as Sensitive)”.
